The values that follow come from US20230174608A1, “Polypeptide Derivative Having Dual Receptor Agonistic Action and Use Thereof” (TIANJIN INSTITUTE OF PHARMACEUTICAL RESEARCH CO., LTD., priority 2020, published 2023).

A word on the EC50: it is the midpoint of the concentration-response curve. Read a high EC50 as a less potent agent.

Assay [1] has as its system glucose loaded normal mice. Nature of the assay: Glucose loading test on normal mice after single administration. Type of assay: in vivo, Kunming mice. The conditions noted are these: for Blood glucose reduction rate (%) / Blood glucose level after glucose loading: 30 nmol/kg single dose; for Blood glucose reduction rate (%): after glucose loading, versus model control group; for Blood glucose level after glucose loading: glucose 2.5 g/kg intragastric 60 min after administration, measured 30 min after loading; for Blood glucose level after glucose loading / Fasting blood glucose level: n=5; for Fasting blood glucose level: normal mice fasted 6 h, 30 nmol/kg group. The gist of the method:
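Male Kunming mice (20-22 g), 5 per group, fasted 6 h, received compound or semaglutide at 30 nmol/kg or saline. Glucose 2.5 g/kg given intragastrically 60 min post-dose; blood glucose measured 30 min after glucose loading.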

A further assay has as its target T1, GLP-1R (Homo sapiens, UniProt P43220).
T1 construct: expressed in transfected cells
Nature of the assay: GLP-1 receptor-mediated cAMP production in vitro. The assay is classed as cell-based. The conditions noted are these: HEK293 cell line stably expressing GLP-1R. The gist of the method:
(§1)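 HEK293 cells stably expressing human GLP-1R or GCGR are stimulated with compound for 30 min in the dark in serum-free medium with 0.5 mM IBMX, with test dilutions spanning 1 μM down to 10^−3 nM. cAMP is detected after a 60 min room-temperature reaction as the 665/615 nm ratio.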
(cAMP levels reflect the balance of adenylyl cyclase and phosphodiesterase activity.)

The target in the next assay is T2, GCGR (Homo sapiens, UniProt P47871).
T2 construct: expressed in transfected cells
T2 sequence (P47871 26-477, species assumed): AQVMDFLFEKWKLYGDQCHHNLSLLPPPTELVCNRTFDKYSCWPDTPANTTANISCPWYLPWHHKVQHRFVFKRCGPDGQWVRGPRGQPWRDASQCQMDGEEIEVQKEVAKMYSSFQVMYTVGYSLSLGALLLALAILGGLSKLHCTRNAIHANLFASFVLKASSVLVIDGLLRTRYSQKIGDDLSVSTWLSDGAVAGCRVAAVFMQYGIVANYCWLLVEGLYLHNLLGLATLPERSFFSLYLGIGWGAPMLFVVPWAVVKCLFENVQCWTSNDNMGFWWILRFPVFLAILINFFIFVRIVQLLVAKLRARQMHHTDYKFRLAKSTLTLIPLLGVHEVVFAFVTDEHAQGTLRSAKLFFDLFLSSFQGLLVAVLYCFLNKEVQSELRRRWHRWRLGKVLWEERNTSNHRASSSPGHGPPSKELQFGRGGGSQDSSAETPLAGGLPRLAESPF
Nature of the assay: GC receptor-mediated cAMP production in vitro. The assay is classed as cell-based. The conditions noted are these: HEK293 cell line stably expressing GCGR. Summed up: as §1

The test system of assay [2] is diet-induced obesity (DIO) mice. Nature of the assay: DIO model mice, weight after 2 weeks of administration. The conditions noted are these: 30 nmol/kg s.c. once a day, 14 days. Type of assay: in vivo, C57BL/6N mice. An excerpt: Method: C57BL/6N mice were fed with H10060 high-fat diets to obtain diet-induced obesity (DIO) models, and mice in a control group (n=5) were fed with standard diets. One day before the first administration, the mice in the model group were randomly divided into 6 groups according to their weights (within a range of 40.5-50.5 g), i.e., a model control group, a positive control group, and test compound groups (dgc003, dgc004, dgc010, and dgc017), respectively, 5 mice in each group, which were administered once a day by subcutaneous injection. Saline was subcutaneously injected into each mouse in the blank control group and the model control group every day. The administration was performed for 14 days. The positive control drug and the test compounds were administered at a dose of 30 nmol/kg, and the administration volume for each group was 0.005 mL/g weight. The mice were weighed before each administration, and 72-h food intake was weighed every three days.

Assay [3] shares this test system. Briefly: Obese (DIO) model mice, 23 days of successive administration. The assay is classed as in vivo, C57BL/6J Gpt mice. The source says: C57BL/6J Gpt mice (purchased from GemPharmatech (Jiangsu) Co., Ltd.) (6-8-week-old) were fed with H10060 high-fat diet (purchased from Beijing HFK Bioscience Co., Ltd.) to obtain diet-induced obesity (DIO) models, mice in a blank control group (n=5) were fed with standard diets, and all the mice were fed for 11 weeks after being purchased. One day before the first administration, the mice in the model group were randomly divided into 5 groups according to their weights (within a range of 39.5-49.5 g), i.e., a model control group, a positive control group, and test compound groups (dgc005, dgc016, and dgc020), respectively, 5 mice in each group, which were administered every day by subcutaneous injection. Saline was subcutaneously injected in the blank control group and the model control group every day. The administration was performed for 23 days. The positive control drug and the test compounds were administered at a dose of 30 nmol/kg, and the administration volume for each group was 0.005 mL/g weight. The mice were weighed before each administration, and 72-h food intake was weighed every three days. The mice fasted for 16 h before the last administration, fasting blood glucose levels were determined, blood was sampled from the orbital venous plexus to determine triglycerides and total cholesterol, and the liver was taken out for pathological section observation.
The liver of each C576L/6 mouse in the groups was fixed with 12% formaldehyde and prepared into a specimen, and the tissue block was repaired, dehydrated with graded alcohol, embedded in paraffin, stained with HE, and examined under a light microscope.

The test system is the same in assay [4]. Nature of the assay: DIO mice, weight and blood glucose after multiple administrations at different doses. The conditions noted are these: for Fasting blood glucose (mmol/L) before the last administration / Blood glucose level (mmol/L) 0.5 h after glucose loading / Glycemic load reduction rate: Day 22; for Fasting blood glucose (mmol/L) before the last administration: fasted 16 h; for Blood glucose level (mmol/L) 0.5 h after glucose loading: glucose 1 g/kg intragastric 30 min after administration; for Glycemic load reduction rate: versus model control group; for Reduction rate of weight without fasting on day 21 compared to day 0: n=5. The assay is classed as in vivo, C57BL/6N mice. The source says: 40 C57BL/6N mice were purchased from Beijing Vital River Laboratory Animal Technology Co., Ltd. Mice in a model group (n=35) were fed with H10060 high-fat diets to obtain diet-induced obesity (DIO) models, mice in a blank control group (n=5) were fed with standard diets, and all the mice were fed for 36 weeks. On the day of the first administration, the mice in the model group were randomly divided into 7 groups according to their weights (within a range of 45-60 g), i.e., a model control group, positive control groups (semaglutide at doses of 10 nmol/kg and 30 nmol/kg, respectively), and test compound groups (dgc005 and dgc016 at doses of 10 nmol/kg and 30 nmol/kg, respectively), 5 mice in each group. The positive control drug and the test compounds were respectively subcutaneously injected into each mouse in the positive control groups and the test compound groups every day, saline was subcutaneously injected into each mouse in the blank control group and the model control group, and the administration was performed for 22 days (the administration volume for each group was 0.005 mL/g weight). The mice were weighed before each administration, and 72-h food intake was weighed every three days. The mice fasted for 16 h before the last administration, and 30 min after administration, a glucose solution (1 g/kg, the administration volume was 0.01 mL/g weight) was intragastrically administered to each mouse for glucose tolerance test. Blood glucose levels were determined 0.5 h after glucose loading.

The mark [5] stands for this setting: after 23 days of administration, 30 nmol/kg s.c. daily, n=5.

Marks after values point to notes of the source that are not given here. Where a SMILES comes first, the peptide text is derived from it.

T1 sequence (P43220 24-463, species assumed): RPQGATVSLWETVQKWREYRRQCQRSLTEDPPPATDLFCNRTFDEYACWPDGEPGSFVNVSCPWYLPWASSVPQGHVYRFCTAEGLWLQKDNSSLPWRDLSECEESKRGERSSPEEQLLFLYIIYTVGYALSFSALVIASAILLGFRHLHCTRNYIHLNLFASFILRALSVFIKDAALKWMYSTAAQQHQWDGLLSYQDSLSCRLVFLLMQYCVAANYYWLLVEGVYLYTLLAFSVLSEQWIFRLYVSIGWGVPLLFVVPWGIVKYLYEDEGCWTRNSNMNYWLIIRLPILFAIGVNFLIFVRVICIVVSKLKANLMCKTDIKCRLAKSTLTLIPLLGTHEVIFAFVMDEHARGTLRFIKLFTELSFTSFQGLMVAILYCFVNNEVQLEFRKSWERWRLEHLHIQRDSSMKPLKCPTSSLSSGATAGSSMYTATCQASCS

As for `CCCCCCCCCCCCCCCC(=O)N[C@@H](CCC(=O)NCCCC[C@H](NC(=O)[C@H](C)NC(=O)[C@H](C)NC(=O)[C@H](CCCNC(=N)N)NC(=O)[C@H](CCC(=O)O)NC(=O)[C@H](CC(=O)O)NC(=O)[C@H](CC(C)C)NC(=O)[C@H](Cc1ccc(O)cc1)NC(=O)[C@H](CCCCN)NC(=O)[C@H](CO)NC(=O)[C@H](Cc1ccc(O)cc1)NC(=O)[C@H](CC(=O)O)NC(=O)[C@H](CO)NC(=O)[C@@H](NC(=O)[C@H](Cc1ccccc1)NC(=O)[C@@H](NC(=O)CNC(=O)[C@H](CCC(N)=O)NC(=O)C(C)(C)NC(=O)[C@@H](N)Cc1c[nH]cn1)[C@@H](C)O)[C@@H](C)O)C(=O)N[C@@H](CCC(=O)O)C(=O)N[C@@H](Cc1ccccc1)C(=O)N[C@H](C(=O)N[C@@H](C)C(=O)N[C@@H](Cc1c[nH]c2ccccc12)C(=O)N[C@@H](CC(C)C)C(=O)N[C@@H](CCC(=O)O)C(=O)N[C@@H](C)C(=O)NCC(=O)NCC(N)=O)[C@@H](C)CC)C(=O)O` [dgc003] (HELM PEPTIDE1{H.[Aib].Q.G.T.F.T.S.D.Y.S.K.Y.L.D.E.R.A.A.K.E.F.I.A.W.L.E.A.G.G.[am]}|PEPTIDE2{[CCCCCCCCCCCCCCCC(=O)[*:2]].[gGlu]}$PEPTIDE1,PEPTIDE2,20:R3-2:R2$$$V2.0; N-terminus assumed), in assay [1], the “Blood glucose reduction rate (%)” value amounted to 48.12%, the “Blood glucose level after glucose loading” value worked out at 8.82 ± 1.63 mmol/L and the “Fasting blood glucose level” value is on record as 4.20 ± 0.97 mmol/L. This molecule also displayed an EC50 at GLP-1R of 0.291 nM. For the same molecule, at GCGR, a half-maximal effect (EC50) was put at 1.04 nM. Further, the “Weight decreasing rate by the last administration” value in assay [2] is 16.7%.

With `CCCCCCCCCCCCCCCC(=O)N[C@@H](CCC(=O)NCCCC[C@H](NC(=O)[C@H](C)NC(=O)[C@H](C)NC(=O)[C@H](CCCNC(=N)N)NC(=O)[C@H](CCC(=O)O)NC(=O)[C@H](CCC(=O)O)NC(=O)[C@H](CC(C)C)NC(=O)[C@H](Cc1ccc(O)cc1)NC(=O)[C@H](CCCCN)NC(=O)[C@H](CO)NC(=O)[C@H](Cc1ccc(O)cc1)NC(=O)[C@H](CC(=O)O)NC(=O)[C@H](CO)NC(=O)[C@@H](NC(=O)[C@H](Cc1ccccc1)NC(=O)[C@@H](NC(=O)CNC(=O)[C@H](CCC(N)=O)NC(=O)C(C)(C)NC(=O)[C@@H](N)Cc1c[nH]cn1)[C@@H](C)O)[C@@H](C)O)C(=O)N[C@@H](CCC(=O)O)C(=O)N[C@@H](Cc1ccccc1)C(=O)N[C@H](C(=O)N[C@@H](C)C(=O)N[C@@H](Cc1c[nH]c2ccccc12)C(=O)N[C@@H](CC(C)C)C(=O)N[C@@H](CCC(=O)O)C(=O)N[C@@H](C)C(=O)NCC(=O)NCC(N)=O)[C@@H](C)CC)C(=O)O` [dgc004] (HELM PEPTIDE1{H.[Aib].Q.G.T.F.T.S.D.Y.S.K.Y.L.E.E.R.A.A.K.E.F.I.A.W.L.E.A.G.G.[am]}|PEPTIDE2{[CCCCCCCCCCCCCCCC(=O)[*:2]].[gGlu]}$PEPTIDE1,PEPTIDE2,20:R3-2:R2$$$V2.0; N-terminus assumed), in assay [1], the “Blood glucose reduction rate (%)” value was 50.24%, the “Blood glucose level after glucose loading” value came out at 8.46 ± 2.28 mmol/L and the “Fasting blood glucose level” value is listed as 3.42 ± 0.85 mmol/L. The EC50 at GLP-1R is 0.113 nM. On GCGR, this molecule showed an EC50 of 5.84 nM. For the same molecule, the “Weight decreasing rate by the last administration” value in assay [2] was 19.9%.

With `CCCCCCCCCCCCCCCC(=O)N[C@@H](CCC(=O)N[C@@H](CCC(=O)NCCCC[C@H](NC(=O)[C@H](C)NC(=O)[C@H](C)NC(=O)[C@H](CCCNC(=N)N)NC(=O)[C@H](CCC(=O)O)NC(=O)[C@H](CCC(=O)O)NC(=O)[C@H](CC(C)C)NC(=O)[C@H](Cc1ccc(O)cc1)NC(=O)[C@H](CCCCN)NC(=O)[C@H](CO)NC(=O)[C@H](Cc1ccc(O)cc1)NC(=O)[C@H](CC(=O)O)NC(=O)[C@H](CO)NC(=O)[C@@H](NC(=O)[C@H](Cc1ccccc1)NC(=O)[C@@H](NC(=O)CNC(=O)[C@H](CCC(N)=O)NC(=O)C(C)(C)NC(=O)[C@@H](N)Cc1c[nH]cn1)[C@@H](C)O)[C@@H](C)O)C(=O)N[C@@H](CCC(=O)O)C(=O)N[C@@H](Cc1ccccc1)C(=O)N[C@H](C(=O)N[C@@H](C)C(=O)N[C@@H](Cc1c[nH]c2ccccc12)C(=O)N[C@@H](CC(C)C)C(=O)N[C@@H](CCC(=O)O)C(=O)N[C@@H](CO)C(=O)NCC(=O)NCC(N)=O)[C@@H](C)CC)C(=O)O)C(=O)O` [dgc010] (HELM PEPTIDE1{H.[Aib].Q.G.T.F.T.S.D.Y.S.K.Y.L.E.E.R.A.A.K.E.F.I.A.W.L.E.S.G.G.[am]}|PEPTIDE2{[CCCCCCCCCCCCCCCC(=O)[*:2]].[gGlu].[gGlu]}$PEPTIDE1,PEPTIDE2,20:R3-3:R2$$$V2.0; N-terminus assumed), in assay [1], the “Blood glucose reduction rate (%)” value was determined as 52.35%, the “Blood glucose level after glucose loading” value amounted to 8.10 ± 1.13 mmol/L and the “Fasting blood glucose level” value was 3.78 ± 0.84 mmol/L. The same molecule showed an EC50 at GLP-1R of 0.537 nM. This molecule showed an EC50 on GCGR of 0.614 nM. Also, the “Weight decreasing rate by the last administration” value in assay [2] turned out to be 16.4%.

Take “semaglutide [Positive control group, reference compound]”: the “Fasting blood glucose (mmol/L) before the last administration” value in assay [3] (30 nmol/kg s.c. daily, 23 days, fasted 16 h, n=5) stood at 4.48 ± 0.84 mmol/L; in assay [4] (10 nmol/kg s.c. daily), 5.54 ± 1.11 mmol/L; in assay [4] (30 nmol/kg s.c. daily), 5.56 ± 0.91 mmol/L. In assay [3] (30 nmol/kg s.c. every day, without fasting before the last administration compared to day 1), this molecule showed a Weight decreasing rate of 20.9%. In assay [3] (23 days, 30 nmol/kg s.c. daily, HE stain, 2 animals), the “Examination of liver pathological section” value is recorded as “mild to moderate lesions”. Moreover, the “TC (total cholesterol)” value in assay [3] (setting [5]) was 3.97 ± 0.52^Δ mmol/L. In addition, the “TG (triglycerides)” value in assay [3] (setting [5]) is given as 0.90 ± 0.13**^ΔΔ mmol/L. In addition, the 72-h food intake is reported as 3.50 g/mouse in assay [3] (day 4 of administration, 30 nmol/kg s.c. daily); 5.80 g/mouse in assay [3] (day 7 of administration, 30 nmol/kg s.c. daily); 5.40 g/mouse in assay [3] (day 10 of administration, 30 nmol/kg s.c. daily); 5.50 g/mouse in assay [3] (day 13 of administration, 30 nmol/kg s.c. daily). Also, in assay [1], the “Blood glucose reduction rate (%)” value came out at 67.18%. Besides, the “Blood glucose level after glucose loading” value in assay [1] is 5.58 ± 1.55**^ mmol/L. The “Fasting blood glucose level” value in assay [1] is 3.78 ± 1.28 mmol/L. Moreover, the “Blood glucose level (mmol/L) 0.5 h after glucose loading” value in assay [4] (10 nmol/kg s.c. daily) is 7.06 ± 1.15 mmol/L; in assay [4] (30 nmol/kg s.c. daily) it was 8.20 ± 0.87 mmol/L. The “Glycemic load reduction rate” value amounted to 32.89 in assay [4] (10 nmol/kg s.c. daily) and 22.05 in assay [4] (30 nmol/kg s.c. daily). For the same molecule, the figures for the “Reduction rate of weight without fasting on day 21 compared to day 0” value in assay [4] (10 nmol/kg s.c. every day) and in assay [4] (30 nmol/kg s.c. every day) were 15.28% and 18.83%, respectively. Besides, the “Weight decreasing rate by the last administration” value in assay [2] is reported as 12.9%.
